Where two headings read alike, the source gives them in different places.
System: S. aureus clinical isolates
Assay: microbe, parasite or virus in culture
Assay type: cell-based

Measured: MIC

CC(=O)NC[C@H]1CN(c2ccc(N3CCOCC3)c(F)c2)C(=O)O1 [Linezolid]
2 µg/mL: Staphylococcus aureus, ATCC 29213 / MSSA, S. aureus ATCC 29213, MSSA / VSSA, test date 2018-10-25 (three repeat lines), read-out: MIC | Staphylococcus aureus, ATCC 29213 / MSSA, S. aureus ATCC 29213, MSSA / VSSA, test date 2018-11-07, read-out: MIC | Staphylococcus aureus, MRSA / NRS 18 / VISA, S. aureus IHMA 649386, NRS18, MRSA / VISA, read-out: MIC | Staphylococcus aureus, MRSA / NRS 23 / VISA, S. aureus IHMA 649390, NRS23, MRSA / VISA, read-out: MIC | Staphylococcus aureus, MRSA / NRS 27 / VISA, S. aureus IHMA 1308248, NRS27, MRSA / VISA, read-out: MIC | Staphylococcus aureus, MRSA / USA100 / VRSA, S. aureus IHMA 672234, VRS4, MRSA / VRSA, USA100, read-out: MIC | Staphylococcus aureus, MRSA / USA100 / VRSA, S. aureus IHMA 672235, VRS5, MRSA / VRSA, USA100, read-out: MIC | Staphylococcus aureus, MRSA / USA100 / VRSA, S. aureus IHMA 672237, VRS7, MRSA / VRSA, USA100, read-out: MIC | Staphylococcus aureus, MRSA, S. aureus IHMA 1575268, MRSA / VSSA, read-out: MIC | Staphylococcus aureus, MRSA, S. aureus IHMA 1577820, MRSA / VSSA, read-out: MIC | Staphylococcus aureus, MRSA, S. aureus IHMA 1580940, MRSA / VSSA, read-out: MIC | Staphylococcus aureus, MRSA, S. aureus IHMA 1582100, MRSA / VSSA, read-out: MIC | Staphylococcus aureus, MRSA, S. aureus IHMA 1585316, MRSA / VSSA, read-out: MIC | Staphylococcus aureus, MRSA, S. aureus IHMA 1587322, MRSA / VSSA, read-out: MIC | Staphylococcus aureus, MRSA, S. aureus IHMA 1592755, MRSA / VSSA, read-out: MIC | Staphylococcus aureus, MRSA, S. aureus IHMA 1592776, MRSA / VSSA, read-out: MIC | Staphylococcus aureus, MRSA, S. aureus IHMA 1611170, MRSA / VSSA, read-out: MIC | Staphylococcus aureus, MRSA, S. aureus IHMA 1612228, MRSA / VSSA, read-out: MIC | Staphylococcus aureus, MRSA, S. aureus IHMA 1621638, MRSA / VSSA, read-out: MIC | Staphylococcus aureus, MRSA, S. aureus IHMA 1695391, MRSA / VSSA, read-out: MIC | Staphylococcus aureus, MRSA, S. aureus IHMA 1703428, MRSA / VSSA, read-out: MIC | Staphylococcus aureus, MRSA, S. aureus IHMA 1720350, MRSA / VSSA, read-out: MIC | Staphylococcus aureus, MRSA, S. aureus IHMA 1742231, MRSA / VSSA, read-out: MIC | Staphylococcus aureus, MSSA / NRS 13 / VISA, S. aureus IHMA 1308245, NRS13, MSSA / VISA, read-out: MIC | Staphylococcus aureus, MSSA / NRS 14 / VISA, S. aureus IHMA 1308246, NRS14, MSSA / VISA, read-out: MIC | Staphylococcus aureus, MSSA / NRS 17 / VISA, S. aureus IHMA 1308247, NRS17, MSSA / VISA, read-out: MIC | Staphylococcus aureus, MSSA, S. aureus IHMA 1565492, MSSA / VSSA, read-out: MIC | Staphylococcus aureus, MSSA, S. aureus IHMA 1569499, MSSA / VSSA, read-out: MIC | Staphylococcus aureus, MSSA, S. aureus IHMA 1569754, MSSA / VSSA, read-out: MIC | Staphylococcus aureus, MSSA, S. aureus IHMA 1574202, MSSA / VSSA, read-out: MIC | Staphylococcus aureus, MSSA, S. aureus IHMA 1575779, MSSA / VSSA, read-out: MIC | Staphylococcus aureus, MSSA, S. aureus IHMA 1580233, MSSA / VSSA, read-out: MIC | Staphylococcus aureus, MSSA, S. aureus IHMA 1580925, MSSA / VSSA, read-out: MIC | Staphylococcus aureus, MSSA, S. aureus IHMA 1580955, MSSA / VSSA, read-out: MIC | Staphylococcus aureus, MSSA, S. aureus IHMA 1582691, MSSA / VSSA, read-out: MIC | Staphylococcus aureus, MSSA, S. aureus IHMA 1591459, MSSA / VSSA, read-out: MIC | Staphylococcus aureus, MSSA, S. aureus IHMA 1592749, MSSA / VSSA, read-out: MIC | Staphylococcus aureus, MSSA, S. aureus IHMA 1594297, MSSA / VSSA, read-out: MIC | Staphylococcus aureus, MSSA, S. aureus IHMA 1597125, MSSA / VSSA, read-out: MIC | Staphylococcus aureus, MSSA, S. aureus IHMA 1599157, MSSA / VSSA, read-out: MIC | Staphylococcus aureus, MSSA, S. aureus IHMA 1604586, MSSA / VSSA, read-out: MIC | Staphylococcus aureus, MSSA, S. aureus IHMA 1604609, MSSA / VSSA, read-out: MIC | Staphylococcus aureus, MSSA, S. aureus IHMA 1609919, MSSA / VSSA, read-out: MIC | Staphylococcus aureus, MSSA, S. aureus IHMA 1622864, MSSA / VSSA, read-out: MIC | Staphylococcus aureus, MSSA, S. aureus IHMA 1626392, MSSA / VSSA, read-out: MIC | Staphylococcus aureus, MSSA, S. aureus IHMA 1713793, MSSA / VSSA, read-out: MIC
0.5 µg/mL: Staphylococcus aureus, MRSA / NRS 19 / VISA, S. aureus IHMA 649387, NRS19, MRSA / VISA, read-out: MIC | Staphylococcus aureus, MRSA, S. aureus IHMA 1580300, MRSA / VSSA, read-out: MIC | Staphylococcus aureus, MRSA, S. aureus IHMA 1666371, MRSA / VSSA, read-out: MIC | Staphylococcus aureus, MSSA / NRS 28 / VISA, S. aureus IHMA 1308249, NRS28, MSSA / VISA, read-out: MIC
4 µg/mL: S. aureus ATCC 29213, MSSA / VSSA, test date 2018-10-25 (three repeat lines) | Staphylococcus aureus, MRSA / USA100 / VRSA, S. aureus IHMA 1308256, VRS10, MRSA / VRSA, USA100, read-out: MIC | Staphylococcus aureus, MRSA, S. aureus IHMA 1569509, MRSA / VSSA, read-out: MIC | Staphylococcus aureus, MRSA, S. aureus IHMA 1575629, MRSA / VSSA, read-out: MIC | Staphylococcus aureus, MRSA, S. aureus IHMA 1584223, MRSA / VSSA, read-out: MIC | Staphylococcus aureus, MRSA, S. aureus IHMA 1591462, MRSA / VSSA, read-out: MIC | Staphylococcus aureus, MRSA, S. aureus IHMA 1602095, MRSA / VSSA, read-out: MIC | Staphylococcus aureus, MRSA, S. aureus IHMA 1611612, MRSA / VSSA, read-out: MIC | Staphylococcus aureus, MRSA, S. aureus IHMA 1622252, MRSA / VSSA, read-out: MIC | Staphylococcus aureus, MRSA, S. aureus IHMA 1622527, MRSA / VSSA, read-out: MIC | Staphylococcus aureus, MRSA, S. aureus IHMA 1732989, MRSA / VSSA, read-out: MIC | Staphylococcus aureus, MRSA, S. aureus IHMA 1766357, MRSA / VSSA, read-out: MIC | Staphylococcus aureus, MSSA / NRS 12 / VISA, S. aureus IHMA 1308244, NRS12, MSSA / VISA, read-out: MIC | Staphylococcus aureus, MSSA, S. aureus IHMA 1563826, MSSA / VSSA, read-out: MIC | Staphylococcus aureus, MSSA, S. aureus IHMA 1575652, MSSA / VSSA, read-out: MIC | Staphylococcus aureus, MSSA, S. aureus IHMA 1576329, MSSA / VSSA, read-out: MIC | Staphylococcus aureus, MSSA, S. aureus IHMA 1577800, MSSA / VSSA, read-out: MIC | Staphylococcus aureus, MSSA, S. aureus IHMA 1578560, MSSA / VSSA, read-out: MIC | Staphylococcus aureus, MSSA, S. aureus IHMA 1584230, MSSA / VSSA, read-out: MIC | Staphylococcus aureus, MSSA, S. aureus IHMA 1592751, MSSA / VSSA, read-out: MIC | Staphylococcus aureus, MSSA, S. aureus IHMA 1597120, MSSA / VSSA, read-out: MIC | Staphylococcus aureus, MSSA, S. aureus IHMA 1599506, MSSA / VSSA, read-out: MIC | Staphylococcus aureus, MSSA, S. aureus IHMA 1602078, MSSA / VSSA, read-out: MIC
8 µg/mL: Staphylococcus aureus, MSSA, S. aureus IHMA 1582586, MSSA / VSSA, read-out: MIC
1 µg/mL: Staphylococcus aureus, MRSA / NRS 3 / VISA, S. aureus IHMA 1308243, NRS3, MRSA / VISA, read-out: MIC | Staphylococcus aureus, MRSA / NRS 4 / VISA, S. aureus IHMA 649380, NRS4, MRSA / VISA, read-out: MIC | Staphylococcus aureus, MRSA / NRS 21 / VISA, S. aureus IHMA 649388, NRS21, MRSA / VISA, read-out: MIC | Staphylococcus aureus, MRSA / NRS 22 / USA600 / VISA, S. aureus IHMA 649389, NRS22, MRSA / VISA, USA600, read-out: MIC | Staphylococcus aureus, MRSA / NRS 24 / VISA, S. aureus IHMA 649391, NRS24, MRSA / VISA, read-out: MIC | Staphylococcus aureus, MRSA / NRS 26, S. aureus IHMA 649392, NRS26, MRSA / VSSA, read-out: MIC | Staphylococcus aureus, MRSA / NRS 29 / VISA, S. aureus IHMA 1308250, NRS29, MRSA / VISA, read-out: MIC | Staphylococcus aureus, MRSA / NRS 37 / VISA, S. aureus IHMA 1308251, NRS37, MRSA / VISA, read-out: MIC | Staphylococcus aureus, MRSA / NRS 54, S. aureus IHMA 1308253, NRS54, MRSA / VSSA* (*Expected VAN intermediate, confirmed VAN susceptible twice), test date 2018-11-07, read-out: MIC | Staphylococcus aureus, MRSA / NRS 56 / VISA, S. aureus IHMA 1308254, NRS56, MRSA / VISA, read-out: MIC | Staphylococcus aureus, MRSA / USA100 / VRSA, S. aureus IHMA 672230, VRS1, MRSA / VRSA, USA100, read-out: MIC | Staphylococcus aureus, MRSA / USA100 / VRSA, S. aureus IHMA 672231, VRS2, MRSA / VRSA, USA100, read-out: MIC | Staphylococcus aureus, MRSA / USA100 / VRSA, S. aureus IHMA 672238, VRS8, MRSA / VRSA, USA100, read-out: MIC | Staphylococcus aureus, MRSA / USA100 / VRSA, S. aureus IHMA 672239, VRS9, MRSA / VRSA, USA100, read-out: MIC | Staphylococcus aureus, MRSA / USA100 / VRSA, S. aureus IHMA 1308258, VRS11b, MRSA / VRSA, USA100, read-out: MIC | Staphylococcus aureus, MRSA / USA800 / VRSA, S. aureus IHMA 672233, VRS3b, MRSA / VRSA, USA800, read-out: MIC | Staphylococcus aureus, MRSA, S. aureus IHMA 1583795, MRSA / VSSA, read-out: MIC | Staphylococcus aureus, MRSA, S. aureus IHMA 1586780, MRSA / VSSA, read-out: MIC | Staphylococcus aureus, MRSA, S. aureus IHMA 1588127, MRSA / VSSA, read-out: MIC | Staphylococcus aureus, MRSA, S. aureus IHMA 1597106, MRSA / VSSA, read-out: MIC | Staphylococcus aureus, MRSA, S. aureus IHMA 1620441, MRSA / VSSA, read-out: MIC | Staphylococcus aureus, MSSA / NRS 52, S. aureus IHMA 1308252, NRS52, MSSA / VSSA* (*Expected VAN intermediate, confirmed VAN susceptible twice), test date 2018-11-07, read-out: MIC | Staphylococcus aureus, MSSA / USA100 / VRSA, S. aureus IHMA 672236, VRS6, MSSA / VRSA, USA100, read-out: MIC | Staphylococcus aureus, MSSA, S. aureus IHMA 1587279, MSSA / VSSA, read-out: MIC

From article PMC7561186, “Rational design of balanced dual-targeting antibiotics with limited resistance” (PLoS Biology, 2020)
